Read-outs that look alike come from different tables or passages of the source.
Target: T1, LCK (Homo sapiens, UniProt P06239)
T1 construct: LCK KD GST (225-509); GST
Experiment: LCK-Homogeneous Time Resolved Fluorescent (HTRF) Kinase Assay
Assay type: biochemical
Description: LCK-Homogeneous Time Resolved Fluorescent (HTRF) Kinase Assay:
The LCK HTRF assay begins with LCK in the presence of ATP phosphorylating the biotinylated peptide Gastrin. The reaction incubates for 90 min. To quench the assay detection reagents are added which both stop the reaction by diluting out the enzyme and chelating the metals due to the presence of EDTA. Once the detection reagents are added the assay incubates for 30 min to allow for equilibration of the detection reagents.
Buffer conditions are as follows: 50 mM HEPES pH 7.5, 50 mM NaCl, 20 mM MgCl, 5 mM MnCl, 2 mM DTT, 0.05% BSA.
The assay is quenched and stopped with 160 μL of detection reagent. Detection reagents are as follows: Buffer made of 50 mM Tris, pH 7.5, 100 mM NaCl, 3 mM EDTA, 0.05% BSA, 0.1% Tween20.
The assay plate is read in either a Discovery or a RubyStar.

[1] = read-out: activity in the LCK-HTRF Kinase Assay

T1 sequence (P06239 225-509): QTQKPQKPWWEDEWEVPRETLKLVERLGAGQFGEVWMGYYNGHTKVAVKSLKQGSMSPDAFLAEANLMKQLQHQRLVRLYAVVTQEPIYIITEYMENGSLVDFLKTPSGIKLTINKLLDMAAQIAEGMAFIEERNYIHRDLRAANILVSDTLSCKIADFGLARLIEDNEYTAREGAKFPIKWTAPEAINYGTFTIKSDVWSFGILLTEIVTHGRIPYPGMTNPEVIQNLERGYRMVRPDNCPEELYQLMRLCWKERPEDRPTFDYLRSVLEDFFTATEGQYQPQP

IC50 [1] [nM] | IC50 [nM] | Structure (SMILES)
< 1000 |  | Cc1cccc(C)c1-n1c(=O)c2cnc(Nc3ccc(OCCN4CCCCC4)c(F)c3)nc2n2c3ccccc3nc12 [No. 35, 6-(2,6-dimethylphenyl)-2-((3-fluoro-4-((2-(1-piperidinyl)ethyl)oxy)phenyl)amino)-pyrimido[5′,4′:5,6]pyrimido[1,2-a]benzimidazol-5(6H)-one]
< 1000 |  | COc1cc(Nc2ncc3c(=O)n(-c4c(C)cccc4C)c4nc5ccccc5n4c3n2)ccc1OCCCN1CCN(C(C)C)CC1 [No. 63, 6-(2,6-dimethylphenyl)-2-((4-((3-(4-(1-methylethyl)-1-piperazinyl)propyl)oxy)-3-(methyloxy)phenyl)-amino)pyrimido[5′,4′:5,6]pyrimido[1,2-a]-benzimidazol-5(6H)-one]
< 1000 |  | COc1cc(Nc2ncc3c(=O)n(-c4c(C)cccc4C)c4nc5ccccc5n4c3n2)ccc1OCCC1CCN(C)CC1 [No. 4, 6-(2,6-dimethylphenyl)-2-((3-(methyloxy)-4-((2-(1-methyl-4-piperidinyl)ethyl)oxy)phenyl)amino)-pyrimido[5′,4′:5,6]pyrimido[1,2-a]benzimidazol-5(6H)-one]
< 1000 |  | Cc1cccc(C)c1-n1c(=O)c2cnc(Nc3ccc(N4CCN(C(C)C)CC4)c(Cl)c3)nc2n2c3ccccc3nc12 [No. 41, 2-((3-chloro-4-(4-(1-methylethyl)-1-piperazinyl)-phenyl)amino)-6-(2,6-dimethylphenyl)-pyrimido[5′,4′:5,6]pyrimido[1,2-a]benzimidazol-5(6H)-one]
< 1000 |  | Cc1cccc(C)c1-n1c(=O)c2cnc(Nc3cccc(N4CCN(C)CC4)c3)nc2n2c3ccccc3nc12 [No. 48, 6-(2,6-dimethylphenyl)-2-((3-(4-methyl-1-piperazinyl)phenyl)amino)pyrimido[5′,4′:5,6]-pyrimido[1,2-a]benzimidazol-5(6H)-one]
< 1000 |  | Cc1cccc(C)c1-n1c(=O)c2cnc(Nc3cccc(OCCCN4CCN(C)CC4)c3)nc2n2c3ccccc3nc12 [No. 39, 6-(2,6-dimethylphenyl)-2-((3-((3-(4-methyl-1-piperazinyl)propyl)oxy)phenyl)amino)-pyrimido[5′,4′:5,6]pyrimido[1,2-a]benzimidazol-5(6H)-one]
< 1000 |  | Cc1cccc(C)c1-n1c(=O)c2cnc(Nc3ccc(N4CCN(CCN(C)C)CC4)cc3)nc2n2c3ccccc3nc12 [No. 45, 2-((4-(4-(2-(dimethylamino)ethyl)-1-piperazinyl)-phenyl)amino)-6-(2,6-dimethylphenyl)-pyrimido[5′,4′:5,6]pyrimido[1,2-a]benzimidazol-5(6H)-one]
< 1000 |  | Cc1cccc(C)c1-n1c(=O)c2cnc(Nc3ccc(N4CCN(C(C)C)CC4)c(F)c3)nc2n2c3ccccc3nc12 [No. 44, 6-(2,6-dimethylphenyl)-2-((3-fluoro-4-(4-(1-methylethyl)-1-piperazinyl)phenyl)amino)-pyrimido[5′,4′:5,6]pyrimido[1,2-a]benzimidazol-5(6H)-one]
 | < 1000 | COc1cc(Nc2ncc3c(=O)n(-c4c(C)cccc4C)c4nc5ccccc5n4c3n2)ccc1N1CCN(C)CC1 [No. 19, 6-(2,6-dimethylphenyl)-2-((3-(methyloxy)-4-(4-methyl-1-piperazinyl)phenyl)amino)-pyrimido[5′,4′:5,6]pyrimido[1,2-a]benzimidazol-5(6H)-one]
< 1000 |  | COCCN1CCN(c2ccc(Nc3ncc4c(=O)n(-c5c(C)cccc5C)c5nc6ccccc6n5c4n3)cc2)CC1 [No. 54, 6-(2,6-dimethylphenyl)-2-((4-(4-(2-(methyloxy)ethyl)-1-piperazinyl)phenyl)amino)pyrimido[5′,4′:5,6]-pyrimido[1,2-a]benzimidazol-5(6H)-one]
< 1000 |  | Cc1cccc(C)c1-n1c(=O)c2cnc(Nc3ccc(N4CCN(CCO)CC4)cc3)nc2n2c3ccccc3nc12 [No. 69, 6-(2,6-dimethylphenyl)-2-((4-(4-(2-hydroxyethyl)-1-piperazinyl)phenyl)amino)pyrimido[5′,4′:5,6]-pyrimido[1,2-a]benzimidazol-5(6H)-one]

Further lines, the compound ahead of its results:

Structure (SMILES) | IC50 [1] [nM] | IC50 [nM]
Cc1cccc(C)c1-n1c(=O)c2cnc(Nc3cccc(OCCCN4CCCCC4)c3)nc2n2c3ccccc3nc12 [No. 36, 6-(2,6-dimethylphenyl)-2-((3-((3-(1-piperidinyl)-propyl)oxy)phenyl)amino)pyrimido[5′,4′:5,6]-pyrimido[1,2-a]benzimidazol-5(6H)-one] | < 1000 | 
Cc1cccc(C)c1-n1c(=O)c2cnc(Nc3ccc(OCCC4CCN(C)CC4)cc3)nc2n2c3ccccc3nc12 [No. 24, 6-(2,6-dimethylphenyl)-2-((4-((2-(1-methyl-4-piperidinyl)ethyl)oxy)phenyl)amino)-pyrimido[5′,4′:5,6]pyrimido[1,2-a]benzimidazol-5(6H)-one] | < 1000 | 
Cc1cccc(C)c1-n1c(=O)c2cnc(Nc3ccc(N4CCN(Cc5cccc(C#N)c5)CC4)cc3)nc2n2c3ccccc3nc12 [No. 53, 3-((4-(4-((6-(2,6-dimethylphenyl)-5-oxo-5,6-dihydropyrimido[5′,4′:5,6]pyrimido[1,2-a]-benzimidazol-2-yl)amino)phenyl)-1-piperazinyl)-methyl)benzonitrile] | < 1000 | 
COc1cc(Nc2ncc3c(=O)n(-c4c(C)cccc4C)c4nc5ccccc5n4c3n2)ccc1OCCNC(C)C [No. 43, 6-(2,6-dimethylphenyl)-2-((4-((2-((1-methylethyl)-amino)ethyl)oxy)-3-(methyloxy)phenyl)amino)-pyrimido[5′,4′:5,6]pyrimido[1,2-a]benzimidazol-5(6H)-one] | < 1000 | 
CCN(CC)CCN(C)C(=O)c1ccc(Nc2ncc3c(=O)n(-c4c(C)cccc4C)c4nc5ccccc5n4c3n2)cc1 [No. 64, N-(2-(diethylamino)ethyl)-4-((6-(2,6-dimethylphenyl)-5-oxo-5,6-dihydropyrimido[5′,4′:5,6]pyrimido[1,2-a]-benzimidazol-2-yl)amino)-N-methylbenzamide] | < 1000 | 
CN1CCN(c2ccc(Nc3ncc4c(=O)n(-c5ccc(F)cc5)c5nc6ccccc6n5c4n3)cc2)CC1 [No. 84, 6-(4-fluorophenyl)-2-((4-(4-methyl-1-piperazinyl)-phenyl)amino)pyrimido[5′,4′:5,6]pyrimido[1,2-a]-benzimidazol-5(6H)-one] | < 1000 | 
Cc1cc(OCCCN2CCCCC2)ccc1Nc1ncc2c(=O)n(-c3c(C)cccc3C)c3nc4ccccc4n3c2n1 [No. 15, 6-(2,6-dimethylphenyl)-2-((2-methyl-4-((3-(1-piperidinyl)propyl)oxy)phenyl)amino)-pyrimido[5′,4′:5,6]pyrimido[1,2-a]benzimidazol-5(6H)-one] | < 1000 | 
CN1CCN(c2ccc(Nc3ncc4c(=O)n(-c5ccccc5F)c5nc6ccccc6n5c4n3)cc2)CC1 [No. 79, 6-(2-fluorophenyl)-2-((4-(4-methyl-1-piperazinyl)-phenyl)amino)pyrimido[5′,4′:5,6]pyrimido[1,2-a]-benzimidazol-5(6H)-one] | < 1000 | 
COc1cc(Nc2ncc3c(=O)n(-c4c(C)cccc4C)c4nc5ccccc5n4c3n2)cc(OC)c1OC [No. 18, 6-(2,6-dimethylphenyl)-2-((3,4,5-tris(methyloxy)-phenyl)amino)pyrimido[5′,4′:5,6]pyrimido[1,2-a]-benzimidazol-5(6H)-one] | < 1000 | 
COc1cccc(-n2c(=O)c3cnc(Nc4ccc(N5CCN(C)CC5)cc4)nc3n3c4ccccc4nc23)c1 [No. 81, 6-(3-(methyloxy)phenyl)-2-((4-(4-methyl-1-piperazinyl)phenyl)amino)pyrimido[5′,4′:5,6]-pyrimido[1,2-a]benzimidazol-5(6H)-one] |  | < 1000
Cc1cccc(C)c1-n1c(=O)c2cnc(Nc3ccc(OCCN(C)C)cc3)nc2n2c3ccccc3nc12 [No. 8, 2-((4-((2-(dimethylamino)ethyl)oxy)phenyl)amino)-6-(2,6-dimethylphenyl)pyrimido[5′,4′:5,6]pyrimido[1,2-a]benzimidazol-5(6H)-one] | < 1000 | 
CN1CCN(c2ccc(Nc3ncc4c(=O)n(-c5c(Cl)cccc5Cl)c5nc6ccccc6n5c4n3)cc2)CC1 [No. 67, 6-(2,6-dichlorophenyl)-2-((4-(4-methyl-1-piperazinyl)phenyl)amino)pyrimido[5′,4′:5,6]-pyrimido[1,2-a]benzimidazol-5(6H)-one] |  | < 1000
COc1cc(Nc2ncc3c(=O)n(-c4c(C)cccc4C)c4nc5ccccc5n4c3n2)cc(OC)c1OCCCN1CCN(C)CC1 [No. 9, 2-((3,5-bis(methyloxy)-4-((3-(4-methyl-1-piperazinyl)propyl)oxy)phenyl)amino)-6-(2,6-dimethylphenyl)pyrimido[5′,4′:5,6]pyrimido[1,2-a]-benzimidazol-5(6H)-one] |  | < 1000
COc1cc(Nc2ncc3c(=O)n(-c4c(C)cccc4C)c4nc5ccccc5n4c3n2)ccc1OC[C@H]1CCCN1 [No. 55, 6-(2,6-dimethylphenyl)-2-((3-(methyloxy)4-(((2R)-2-pyrrolidinylmethyl)oxy)phenyl)amino)-pyrimido[5′,4′:5,6]pyrimido[1,2-a]benzimidazol-5(6H)-one] | < 1000 | 
CNCCOc1ccc(Nc2ncc3c(=O)n(-c4c(C)cccc4C)c4nc5ccccc5n4c3n2)cc1 [No. 33, 6-(2,6-dimethylphenyl)-2-((4-((2-(methylamino)-ethyl)oxy)phenyl)amino)pyrimido[5′,4′:5,6]-pyrimido[1,2-a]benzimidazol-5(6H)-one] | < 1000 | 
CN1CCN(c2ccc(Nc3ncc4c(=O)n(-c5cccc(F)c5)c5nc6ccccc6n5c4n3)cc2)CC1 [No. 83, 6-(3-fluorophenyl)-2-((4-(4-methyl-1-piperazinyl)-phenyl)amino)pyrimido[5′,4′:5,6]pyrimido[1,2-a]-benzimidazol-5(6H)-one] | < 1000 | 
